Assays:
human PDE4D3 (PDE4D) = human PDE4D3 (PDE4D) (Homo sapiens (Human), UniProt Q08499); experiment: Phosphodiesterase (PDE)4 inhibitory activity evaluation test ([3H]cAMP hydrolysis by PDE4D enzyme solution); type: biochemical; conditions: recombinant human PDE4D3 expressed in COS-7 cells; [3H]cAMP substrate; 10 min at 30° C.; 2% DMSO
Procedure, shortened: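 Human PDE4D3 expressed in COS-7 cells; cell supernatant used as enzyme at a dilution giving 10–30% cAMP turnover. Compounds (10-fold serial dilutions, 2% final DMSO) incubated with enzyme and 2 μM [3H]cAMP stock in 20 mM Tris-HCl pH 7.4 with MgCl2 for 10 min at 30° C. Reaction stopped by boiling.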

[1] = tested on: TNF-α production in mouse peripheral blood mononuclear cells; experiment: Inhibitory activity measurement on TNF-α production (LPS-stimulated mouse peripheral blood mononuclear cells, ELISA); type: cell-based, mouse (male BALB/c); conditions: PBMC, LPS 1 μg/ml, 5 hours at 37° C., ELISA of culture supernatant
Experimental: Inhibitory Activity Measurement on TNF-α Production
TNF-α production inhibitory activity was evaluated according to the following tests.
(1) Isolation of Mononuclear Cells from Mouse Peripheral Blood
Mononuclear cells were isolated from heparinized blood obtained from male BALB/c mice (Charles River Laboratories, Japan) by density gradient centrifugation using Lympholyte-M (Cedarlane Laboratories). Viable cell numbers in the peripheral blood mononuclear cells were counted using trypan blue dye, and prepared in cell culture medium (RPMI 1640 medium containing 10% FCS) to 1.25×10^6 cells/ml.
(2) Induction of TNF-α Production
Test compounds were dissolved in DMSO, and test compound solutions were diluted for use in cell culture media. 20 μl test compound solutions of different concentrations and 160 μl peripheral blood mononuclear cell suspensions were placed in a 96-well plate, and cultured for 30 minutes. 20 μl (final concentration 1 μg/ml) lipopolysaccharide (LPS) derived from E. coli (serotype 055:B5) was added thereto to induce THF-α production. The mixtures were then cultured at 37° C. for 5 hours, and the culture supernatant was removed from each well.
(3) Measurement of TNF-α Concentration
TNF-α concentrations in the culture supernatants were measured by ELISA (OptEIA™ Set Mouse TNF-α, BD Pharmingen). The IC50 values (concentration which produced 50% inhibition of TNF-α production) for the test compounds were determined with the Excel (Microsoft Excel 2000 SR-1) statistical package using regression analysis function.

Sequence of human PDE4D3 (PDE4D) (Q08499 other isoform, or with tags, fused parts or gaps): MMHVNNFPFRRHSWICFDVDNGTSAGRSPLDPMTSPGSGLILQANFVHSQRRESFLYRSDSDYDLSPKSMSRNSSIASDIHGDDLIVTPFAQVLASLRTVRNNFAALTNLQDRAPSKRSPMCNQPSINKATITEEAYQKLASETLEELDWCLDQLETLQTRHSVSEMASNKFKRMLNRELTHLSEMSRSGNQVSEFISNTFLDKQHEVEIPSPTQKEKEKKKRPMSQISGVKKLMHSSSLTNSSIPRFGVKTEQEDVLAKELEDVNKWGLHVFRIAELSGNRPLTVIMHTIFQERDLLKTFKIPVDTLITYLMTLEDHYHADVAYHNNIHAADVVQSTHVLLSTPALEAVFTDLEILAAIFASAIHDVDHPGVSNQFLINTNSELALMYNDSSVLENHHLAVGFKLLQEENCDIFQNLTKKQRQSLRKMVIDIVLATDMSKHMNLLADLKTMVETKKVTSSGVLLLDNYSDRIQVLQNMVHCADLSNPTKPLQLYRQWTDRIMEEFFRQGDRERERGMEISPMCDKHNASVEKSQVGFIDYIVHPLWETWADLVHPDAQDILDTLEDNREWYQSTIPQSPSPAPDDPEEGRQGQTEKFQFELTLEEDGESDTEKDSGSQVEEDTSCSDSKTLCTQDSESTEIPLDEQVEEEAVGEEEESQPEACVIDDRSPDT

Structure (SMILES)	IC50 (human PDE4D3 (PDE4D)) [nM]	IC50 [1] [nM]
COc1ccc(-c2nc(CNC(=O)c3ncccc3C)co2)cc1OC1CCCC1 [Example 18, N-[2-(3-cyclopentyloxy-4-methoxyphenyl)oxazol-4-ylmethyl]-3-methylpicolinamide]	< 50	< 50
COc1ccc(-c2nc(CNC(=O)c3c(F)cccc3OC)co2)cc1OCC1CC1 [Example 43, N-[2-(3-cyclopropylmethoxy-4-methoxyphenyl)oxazol-4-ylmethyl]-2-fluoro-6-methoxybenzamide]	< 50	< 50
COc1ccc(-c2nc(CCC(=O)c3ncccc3OC)co2)cc1OCC1CC1 [Example 126]	–	< 50
COc1ccc(-c2nc(CCC(=O)c3ncccc3C)co2)cc1OC1C=CCCC1 (centres unmarked) [Example 157, 3-{2-[3-(2-cyclohexenyloxy)-4-methoxyphenyl]oxazol-4-yl}-1-(3-methylpyridin-2-yl)propan-1-one]	< 50	< 50
C=CCOc1ccccc1C(=O)CCc1coc(-c2ccc(OC)c(OCC3CC3)c2)n1 [Example 177, 1-(2-allyloxyphenyl)-3-[2-(3-cyclopropylmethoxy-4-methoxyphenyl)oxazol-4-yl]propan-1-one]	< 50	< 50
C=CCCOc1cc(-c2nc(CNC(=O)c3ccccc3OCC)co2)ccc1OC(F)F [Example 354, N-[2-(3-but-3-enyloxy-4-difluoromethoxyphenyl)oxazol-4-ylmethyl]-2-ethoxybenzamide]	< 50	–
CCOc1ccccc1C(=O)NCc1coc(-c2ccc(OC(F)F)c(OC(CC)CC)c2)n1 [Example 355, N-{2-[4-difluoromethoxy-3-(1-ethylpropoxy)phenyl]oxazol-4-ylmethyl}-2-ethoxybenzamide]	< 50	–
CCOc1ccccc1C(=O)NCc1coc(-c2ccc(OC(F)F)c(OCC(F)F)c2)n1 [Example 382, N-{2-[4-difluoromethoxy-3-(2,2-difluoroethoxy)phenyl]-oxazol-4-ylmethyl}-2-ethoxy benzamide]	< 50	–
CCOc1ccccc1C(=O)NCc1coc(-c2ccc(OC(F)F)c(OCC(F)(F)F)c2)n1 [Example 383, N-{2-[4-difluoromethoxy-3-(2,2,2-trifluoroethoxy)phenyl]-oxazol-4-ylmethyl}-2-ethoxy benzamide]	< 50	–
COc1ccc(-c2nc(CNC(=O)c3ncccc3C)co2)cc1OC(C)C [Example 384, N-[2-(4-methoxy-3-isopropoxyphenyl)oxazol-4-ylmethyl]-3-methylpicolinamide]	< 50	–
